Experimental data from patent publication USRE49850E1, “N-(pyridin-2-yl)-4-(thiazol-5-yl)pyrimidin-2-amine derivatives as therapeutic compounds” (AUCENTRA THERAPEUTICS PTY LTD, priority 2015, dated 2024).

Key:
CDK4D1 = target: T1, CDK4D1 (Homo sapiens, UniProt P11802); test: Kinase assay CDK4/D1 (radiometric or ADP Glo); format: biochemical; conditions: apparent Ki calculated from Km (ATP) and IC50; read-out: CDK inhibition Ki CDK4D1
T1 construct: purchased Eurofins Pharma Discovery or Reaction Biology Corporation (service)
T1 sequence (P11802 whole entry): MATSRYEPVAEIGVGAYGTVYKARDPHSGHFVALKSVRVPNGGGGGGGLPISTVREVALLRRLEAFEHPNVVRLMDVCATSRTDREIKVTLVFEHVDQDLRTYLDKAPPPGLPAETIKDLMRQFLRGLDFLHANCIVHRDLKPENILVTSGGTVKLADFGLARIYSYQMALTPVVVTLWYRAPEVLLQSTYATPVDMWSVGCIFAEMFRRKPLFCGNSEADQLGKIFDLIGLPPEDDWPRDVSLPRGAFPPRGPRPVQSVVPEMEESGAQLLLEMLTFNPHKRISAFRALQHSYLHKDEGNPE
T1 sequence (P24385 whole entry partner): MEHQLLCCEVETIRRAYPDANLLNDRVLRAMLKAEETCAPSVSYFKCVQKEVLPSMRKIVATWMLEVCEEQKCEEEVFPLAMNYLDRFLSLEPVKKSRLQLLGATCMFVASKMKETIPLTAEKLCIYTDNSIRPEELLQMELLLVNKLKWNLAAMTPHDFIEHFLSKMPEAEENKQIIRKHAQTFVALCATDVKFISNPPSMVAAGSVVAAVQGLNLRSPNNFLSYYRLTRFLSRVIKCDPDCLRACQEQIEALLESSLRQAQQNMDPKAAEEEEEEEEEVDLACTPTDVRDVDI
Description: (§1) Eurofins Pharma Discovery or Reaction Biology Corporation Kinase Profiler services were used to measure inhibition of CDKs and other kinases by radiometric assay. Inhibition of CDK4/D1, CDK6/D3 and CDK9/T1 were also determined in-house using ADP Glo Kinase assays (Promega Corporation, Madison, USA). Briefly, the kinase reaction for CDK4/D1 and CDK6/D3 was performed with kinase reaction buffer ([…] Tris base pH 7.5, 20 mM MgCl2, 0.4 mM DTT), 0.1 mg/ml BSA and RB-CTF substrate (retinoblastoma protein1 C-terminal fraction). For CDK9/CyclinT1, the kinase reaction was performed with standard assay buffer and Kinase Dilution Buffer and RBER-IRStide substrate. Serial dilutions of 1:3 were prepared for test compounds for 10 concentrations (from 10 μM to 0.5 nM). The kinase reactions were started by addition of ATP, incubated for 40 min at 37° C. and then stopped by adding 10 μL of ADP Glo reagent. After incubation at room temperature in the dark for 40 min, 20 μL of kinase detection reagent was added per well and incubated for 40 min. Luminescence was measured using an EnVision Multilabel plate reader (PerkinElmer, Buckinghamshire, UK). Positive and negative controls were perfonned in the presence and absence of CDK kinases, respectively. Half-maximal inhibition (IC50) values were calculated using a 4-parameter logistic non-linear regression model with Graphpad prism (Version 6.0). Apparent inhibition constants (Ki) values were calculated from Km (ATP) and IC50 values for the respective kinases.

CDK1B = CDK1B (Homo sapiens, UniProt P06493); test: Kinase assay CDK1B (radiometric profiling service); format: biochemical; conditions: for Ki: apparent Ki calculated from Km (ATP) and IC50, read-out: CDK inhibition Ki CDK1B; for remaining activity at 10 µM: compound at 10 μM, read-out: % remaining enzymatic activity at 10 μM CDK1B
Chain of CDK1B (P06493 whole entry): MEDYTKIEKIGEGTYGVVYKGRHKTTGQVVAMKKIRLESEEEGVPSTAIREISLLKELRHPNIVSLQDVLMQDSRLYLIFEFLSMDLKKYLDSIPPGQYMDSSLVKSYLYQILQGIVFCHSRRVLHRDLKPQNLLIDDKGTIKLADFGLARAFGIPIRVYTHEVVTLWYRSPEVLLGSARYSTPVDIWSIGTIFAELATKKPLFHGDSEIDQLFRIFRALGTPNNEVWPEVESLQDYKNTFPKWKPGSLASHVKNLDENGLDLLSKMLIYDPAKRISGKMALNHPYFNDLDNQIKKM
Chain of CDK1B (P14635 whole entry partner): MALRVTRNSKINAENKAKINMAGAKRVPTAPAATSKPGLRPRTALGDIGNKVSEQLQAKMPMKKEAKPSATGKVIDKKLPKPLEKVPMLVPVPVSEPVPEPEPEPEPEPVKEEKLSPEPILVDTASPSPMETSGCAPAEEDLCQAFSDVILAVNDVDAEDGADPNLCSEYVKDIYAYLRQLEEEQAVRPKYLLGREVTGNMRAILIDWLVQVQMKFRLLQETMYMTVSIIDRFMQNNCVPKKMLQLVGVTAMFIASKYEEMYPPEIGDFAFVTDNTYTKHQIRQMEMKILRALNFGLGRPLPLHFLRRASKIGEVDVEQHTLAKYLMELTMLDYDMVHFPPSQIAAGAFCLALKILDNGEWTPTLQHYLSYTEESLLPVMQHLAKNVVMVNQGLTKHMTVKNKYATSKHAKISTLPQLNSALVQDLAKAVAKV
Description: as §1

CDK9T1 = target: T2, CDK9T1 (Homo sapiens, UniProt P50750); test: Kinase assay CDK9/T1 (radiometric or ADP Glo); format: biochemical; conditions: for Ki: apparent Ki calculated from Km (ATP) and IC50, read-out: CDK inhibition Ki CDK9T1; for remaining activity at 10 µM: compound at 10 μM, read-out: % remaining enzymatic activity at 10 μM CDK9T1
T2 construct: purchased Eurofins Pharma Discovery or Reaction Biology Corporation (service)
T2 sequence (P50750 whole entry): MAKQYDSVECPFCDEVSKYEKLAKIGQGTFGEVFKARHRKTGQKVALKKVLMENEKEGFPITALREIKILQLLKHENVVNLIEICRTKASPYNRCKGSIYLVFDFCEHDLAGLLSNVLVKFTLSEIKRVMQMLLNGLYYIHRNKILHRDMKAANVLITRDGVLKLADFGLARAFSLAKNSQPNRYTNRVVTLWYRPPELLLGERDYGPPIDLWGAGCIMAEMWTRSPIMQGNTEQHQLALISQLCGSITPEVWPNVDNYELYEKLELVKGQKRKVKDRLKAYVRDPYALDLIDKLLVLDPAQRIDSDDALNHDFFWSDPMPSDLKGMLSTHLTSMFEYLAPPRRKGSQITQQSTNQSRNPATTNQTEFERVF
T2 sequence (O60563 whole entry partner): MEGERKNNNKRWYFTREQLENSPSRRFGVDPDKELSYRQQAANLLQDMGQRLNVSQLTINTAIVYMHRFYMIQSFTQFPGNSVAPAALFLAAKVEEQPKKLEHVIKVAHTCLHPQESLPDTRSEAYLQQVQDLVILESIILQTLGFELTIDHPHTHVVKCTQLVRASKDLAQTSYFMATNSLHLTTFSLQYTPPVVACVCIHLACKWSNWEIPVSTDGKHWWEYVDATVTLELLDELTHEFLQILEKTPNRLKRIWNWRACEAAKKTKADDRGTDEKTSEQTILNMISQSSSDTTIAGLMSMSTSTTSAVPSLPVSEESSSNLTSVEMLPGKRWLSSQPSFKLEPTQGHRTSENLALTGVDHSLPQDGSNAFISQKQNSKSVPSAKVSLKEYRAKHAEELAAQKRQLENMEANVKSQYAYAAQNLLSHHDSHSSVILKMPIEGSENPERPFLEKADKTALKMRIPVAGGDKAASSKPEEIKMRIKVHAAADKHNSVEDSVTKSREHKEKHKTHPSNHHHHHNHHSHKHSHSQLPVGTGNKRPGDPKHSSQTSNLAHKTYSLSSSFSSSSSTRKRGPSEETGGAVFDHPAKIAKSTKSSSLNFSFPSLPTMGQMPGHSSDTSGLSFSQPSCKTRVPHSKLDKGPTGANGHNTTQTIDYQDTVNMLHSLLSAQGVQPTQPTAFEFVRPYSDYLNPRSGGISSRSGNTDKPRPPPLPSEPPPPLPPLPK
Description: as §1

CDK6D3 = target: T3, CDK6D3 (Homo sapiens, UniProt Q00534); test: Kinase assay CDK6/D3 (radiometric or ADP Glo); format: biochemical; conditions: for Ki: apparent Ki calculated from Km (ATP) and IC50, read-out: CDK inhibition Ki CDK6D3; for remaining activity at 10 µM: compound at 10 μM, read-out: % remaining enzymatic activity at 10 μM CDK6D3
T3 construct: purchased Eurofins Pharma Discovery or Reaction Biology Corporation (service)
T3 sequence (Q00534 whole entry): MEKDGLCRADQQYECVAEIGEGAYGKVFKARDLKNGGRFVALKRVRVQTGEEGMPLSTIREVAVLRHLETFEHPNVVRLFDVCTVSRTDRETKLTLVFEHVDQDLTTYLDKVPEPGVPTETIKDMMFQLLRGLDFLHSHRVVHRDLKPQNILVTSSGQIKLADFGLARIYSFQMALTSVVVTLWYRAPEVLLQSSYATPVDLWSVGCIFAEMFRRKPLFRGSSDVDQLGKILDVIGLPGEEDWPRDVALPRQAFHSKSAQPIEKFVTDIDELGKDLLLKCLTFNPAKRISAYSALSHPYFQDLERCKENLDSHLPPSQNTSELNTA
T3 sequence (P30281 whole entry partner): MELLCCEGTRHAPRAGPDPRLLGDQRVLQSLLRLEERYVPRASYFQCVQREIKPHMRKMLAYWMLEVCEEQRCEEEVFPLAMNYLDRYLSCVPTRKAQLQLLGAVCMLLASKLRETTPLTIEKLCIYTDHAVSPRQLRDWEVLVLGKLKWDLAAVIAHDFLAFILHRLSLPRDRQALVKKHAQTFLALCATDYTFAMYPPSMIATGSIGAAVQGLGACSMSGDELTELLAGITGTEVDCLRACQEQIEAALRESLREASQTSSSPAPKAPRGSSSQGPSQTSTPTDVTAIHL
Description: as §1

MV4-11 = test: Cell viability assay (resazurin, leukemia cell line) MV4-11; format: cell-based, human; conditions: Homo sapiens, MV4-11, 72 h; read-out: Anti-proliferative activity GI50 MV4-11
Description: (§2) Compounds from Example 1 were subjected to a standard MTT (3-(4,5-dimethylthiazol-2-yl)-2,5-diphenyltetrazolium bromide) and resazurin assays on solid tumour cell lines and leukemia cell lines, respectively, as previously reported (Wang S et al., J Med Chem 47:1662-1675, 2004 and Diab S. et al. CheMedChem 9:962-972, 2014).

CDK 2A = CDK 2A (Homo sapiens, UniProt P24941); test: Kinase assay CDK2A (radiometric profiling service); format: biochemical; conditions: for Ki: apparent Ki calculated from Km (ATP) and IC50, read-out: CDK inhibition Ki CDK 2A; for remaining activity at 10 µM: compound at 10 μM, read-out: % remaining enzymatic activity at 10 μM CDK 2A
Description: as §1

CDK7H = CDK7H (Homo sapiens, UniProt P50613); test: Kinase assay CDK7H (radiometric profiling service); format: biochemical; conditions: for Ki: apparent Ki calculated from Km (ATP) and IC50, read-out: CDK inhibition Ki CDK7H; for remaining activity at 10 µM: compound at 10 μM, read-out: % remaining enzymatic activity at 10 μM CDK7H
Chain of CDK7H (P50613 whole entry): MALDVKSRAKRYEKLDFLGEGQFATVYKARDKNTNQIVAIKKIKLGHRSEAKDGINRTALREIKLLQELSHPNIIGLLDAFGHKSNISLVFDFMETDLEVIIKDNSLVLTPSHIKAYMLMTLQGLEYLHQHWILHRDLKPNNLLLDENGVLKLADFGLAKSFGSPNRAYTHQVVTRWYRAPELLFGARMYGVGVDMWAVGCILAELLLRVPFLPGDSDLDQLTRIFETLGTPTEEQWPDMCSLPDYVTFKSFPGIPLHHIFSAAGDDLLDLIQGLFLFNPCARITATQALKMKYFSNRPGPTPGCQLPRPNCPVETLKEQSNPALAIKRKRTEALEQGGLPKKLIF
Chain of CDK7H (P51946 whole entry partner): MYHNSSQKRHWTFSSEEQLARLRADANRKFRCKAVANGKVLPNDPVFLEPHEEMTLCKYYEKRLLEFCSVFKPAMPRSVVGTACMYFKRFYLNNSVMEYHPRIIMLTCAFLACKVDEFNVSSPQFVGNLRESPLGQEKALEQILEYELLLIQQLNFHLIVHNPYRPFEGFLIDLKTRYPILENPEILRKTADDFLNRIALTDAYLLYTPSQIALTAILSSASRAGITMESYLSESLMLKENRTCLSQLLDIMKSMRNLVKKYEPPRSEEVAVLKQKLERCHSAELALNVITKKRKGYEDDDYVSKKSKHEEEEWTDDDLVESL
Chain of CDK7H (P51948 whole entry partner): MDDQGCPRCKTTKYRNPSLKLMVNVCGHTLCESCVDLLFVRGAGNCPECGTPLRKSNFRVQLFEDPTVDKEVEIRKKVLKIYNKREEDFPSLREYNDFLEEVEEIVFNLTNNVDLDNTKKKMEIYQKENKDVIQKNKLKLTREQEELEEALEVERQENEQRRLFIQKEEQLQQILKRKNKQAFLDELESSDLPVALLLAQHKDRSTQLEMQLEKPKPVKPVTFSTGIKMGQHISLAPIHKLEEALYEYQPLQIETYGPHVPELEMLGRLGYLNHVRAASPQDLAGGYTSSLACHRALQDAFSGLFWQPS
Description: as §1

MDA-MB-453 = test: Cell viability assay (MTT, solid tumour cell line) MDA-MB-453; format: cell-based, human; conditions: Homo sapiens, MDA-MB-453, 72 h; read-out: Anti-proliferative activity GI50 MDA-MB-453
Description: as §2

| SMILES | Ki (CDK4D1) [nM] | Ki (CDK1B) [µM] | Ki (CDK9T1) [nM] | Ki (CDK6D3) [nM] | GI50 (MV4-11) [nM] | Ki (CDK 2A) [nM] | Ki (CDK7H) [nM] | remaining activity at 10 µM (CDK1B) [%] | remaining activity at 10 µM (CDK9T1) [%] | remaining activity at 10 µM (CDK6D3) [%] | GI50 (MDA-MB-453) [nM] | remaining activity at 10 µM (CDK 2A) [%] | remaining activity at 10 µM (CDK7H) [%] |
| --- | --- | --- | --- | --- | --- | --- | --- | --- | --- | --- | --- | --- | --- |
| CNc1nc(C)c(-c2ccnc(Nc3ccc(N4CCN(Cc5ccccc5)CC4)cc3)n2)s1 [Compound 41, 5-(2-((4-(4-benzylpiperazin-1-yl)phenyl)amino)pyrimidin-4-yl)-N,4-dimethylthiazol-2-amine] | 6 | 0.133 | 117 | 225 | 38 ± 6 | 37 | 67 |  |  |  |  |  |  |
| Cc1c(-c2ccnc(Nc3ccc(N4CCNCC4)cn3)n2)sc(=O)n1C1CCCC1 [Compound 96, 3-cyclopentyl-4-methyl-5-(2-((5-(piperazin-1-yl)pyridin-2-yl)amino)pyrimidin-4-yl)thiazol-2(3H)-one] |  |  |  |  | 792 ± 74 |  |  | 63 | 15 | 11 | 2860 ± 988 | 61 | 22 |
| CNc1nc(C)c(-c2ccnc(Nc3ccc(N4CCNCC4)cn3)n2)s1 [Compound 26, N,4-dimethyl-5-(2-((5-(piperazin-1-yl)pyridin-2-yl)amino)pyrimidin-4-yl)thiazol-2-amine] | 6 | > 5 | 2850 | 114 | 259 ± 241 | 889 | > 5000 |  |  |  |  |  |  |
| CCc1nc(C)c(-c2nc(Nc3ccc(N4CCN(C(C)=O)CC4)cn3)ncc2Cl)s1 [Compound 11, 1-(4-(6-((5-chloro-4-(2-ethyl-4-methylthiazol-5-yl)pyrimidin-2-yl)amino)pyridin-3-yl)piperazin-1-yl)ethan-1-one] | 250 | > 5 | > 5000 |  | > 10000 | > 5000 | > 5000 |  |  |  | > 10000 |  |  |
| Cc1nc(NC2CCCC2)sc1-c1nc(Nc2ccc(N3CCOCC3)cn2)ncc1F [Compound 72] |  |  | > 5000 |  |  |  | > 5000 |  |  |  | 1440 ± 304 |  |  |
| CC(=O)N1CCN(c2ccc(Nc3nccc(-c4sc(=O)[nH]c4C)n3)nc2)CC1 [Compound 95, 5-(2-((5-(4-acetylpiperazin-1-yl)pyridin-2-yl)amino)pyrimidin-4-yl)-4-methylthiazol-2(3H)-one] |  |  |  |  | 2240 ± 43 |  |  | 55 | 17 | 25 | > 10000 | 40 | 68 |
| CCN1CCN(c2ccc(Nc3ncc(F)c(-c4sc(NC5CCCC5)nc4C)n3)nc2)CC1 [Compound 67, N-cyclopentyl-5-(2-((5-(4-ethylpiperazin-1-yl)pyridin-2-yl)amino)-5-fluoropyrimidin-4-yl)-4-methylthiazol-2-amine] | 2 | > 5 | > 5000 | 6 | 13 ± 2 | 349 |  |  |  |  | 66 ± 19 |  |  |
| Cc1nc(NC(C)C)sc1-c1ccnc(Nc2ccc(N3CCN(C)CC3)cn2)n1 [Compound 56, N-isopropyl-4-methyl-5-(2-((5-(4-methylpiperazin-1-yl)pyridin-2-yl)amino)pyrimidin-4-yl)thiazol-2-amine] | 3 | 3.81 | 773 | 15 | 75 ± 5 | 399 |  |  |  |  | 618 ± 193 |  |  |
| CCN1CCN(c2ccc(Nc3nccc(-c4sc(NC5CCCC5)nc4C)n3)nc2)CC1 [Compound 66, N-cyclopentyl-5-(2-((5-(4-ethylpiperazin-1-yl)pyridin-2-yl)amino)pyrimidin-4-yl)-4-methylthiazol-2-amine] |  | 3.02 |  |  | 9 ± 1 |  | 780 |  |  |  | 287 ± 70 |  |  |
